The target of assay [1] is Human Axl (residues H473-A894 with Q764R) (Homo sapiens (Human), UniProt P30530, Q764R). As to the kind of experiment: Human AXL kinase assay (33P radiometric, KinaseProfiler). Conditions: 10 μM ATP. Type of assay: biochemical. As for the experimental part: (§1) Kinase activity and compound inhibition were investigated using the ^33P-Phosphoryl transfer radiometric kinase assay, performed using the KinaseProfiler™ service of Eurofins Pharma Discovery Services UK Limited. Dose-response experiments were performed using nine compound concentrations in a 96-well microtiter plate. For each assay, all compounds were prepared to a 50× final assay concentration (50 μM) in 100% DMSO, then diluted in a half-log series, with the final top concentration at 1 μM. This working stock of the compound was added to the assay well as the first component in the reaction, followed by the remaining components as detailed in the following assay protocols below. The positive control wells (100% kinase activity) contain all components of the reaction including 2% DMSO (control for solvent effects), except the compound of interest. Blank wells contain all components of the reaction, with the reference inhibitor, staurosporine. This reference compound was used to abolish kinase activity and generated the 0% kinase activity base-line. IC50 values were calculated by nonlinear regression analysis using the sigmoidal dose-response (variable slope) curve fit on XLFit version 5.3 (ID Business Solutions).
Chain of Human Axl (residues H473-A894 with Q764R) (P30530 473-894 Q764R): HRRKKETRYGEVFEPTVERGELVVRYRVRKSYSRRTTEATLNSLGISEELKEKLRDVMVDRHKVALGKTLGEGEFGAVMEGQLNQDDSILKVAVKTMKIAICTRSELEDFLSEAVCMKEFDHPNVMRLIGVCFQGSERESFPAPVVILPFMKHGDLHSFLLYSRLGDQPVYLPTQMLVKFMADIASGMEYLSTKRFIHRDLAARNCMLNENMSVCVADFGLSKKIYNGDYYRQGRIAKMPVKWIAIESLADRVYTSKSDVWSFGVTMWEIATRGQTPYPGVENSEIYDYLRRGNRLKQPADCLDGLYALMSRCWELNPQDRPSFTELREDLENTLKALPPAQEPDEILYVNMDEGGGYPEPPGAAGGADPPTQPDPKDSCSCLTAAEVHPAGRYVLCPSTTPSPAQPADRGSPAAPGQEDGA
Human Axl (residues H473-A894 with Q764R, 161 nM) was incubated with 8 mM MOPS pH 7.0, 0.2 mM EDTA, 250 μM KKSRGDYMTMQIG (SEO ID NO. 43) 10 mM magnesium acetate and 10 μM [γ-33P-ATP]. The reaction was initiated by the addition of the Mg/ATP mix. After incubation for 40 minutes at room temperature, the reaction was stopped by the addition of phosphoric acid to a concentration of 0.5%. A reaction aliquot of 10 μL was then spotted onto a P30 filtermat and washed four times for 4 minutes in 0.425% phosphoric acid and once in methanol prior to drying and scintillation counting. Incorporated ^33P was measured using the Wallac Microbeta scintillation counter (Perkin Elmer).

For assay [2], the target named is Human Mer (residues R557-E882 with H628Q and R794A) (Homo sapiens (Human), UniProt Q12866). Nature of the assay: Human Mer kinase assay (33P radiometric, KinaseProfiler). Conditions: 10 μM ATP. Format: biochemical. As for the experimental part:
as §1
Human Mer (residues R557-E882 with H628Q and R794A, 0.7 nM) was incubated with 8 mM MOPS pH 7.0, 0.2 mM EDTA, 30 mM NaCl, 250 μM GGMEDIYFEFMGGKKK (SEO ID NO. 44). 10 mM magnesium acetate, and 10 μM [γ-^33P-ATP]. The reaction was initiated by the addition of the Mg/ATP mix. After incubation for 40 minutes at room temperature, the reaction was stopped by the addition of phosphoric acid to a concentration of 0.5%. A reaction aliquot of 10 μL was then spotted onto a P30 filtermat and washed four times for 4 minutes in 0.425% phosphoric acid and once in methanol prior to drying and scintillation counting. Incorporated ^33P was measured using the Wallac Microbeta scintillation counter (Perkin Elmer).

Assay [3] addresses Human Met (residues R974-S1390 with A1209G and V1290L) (Homo sapiens, UniProt P08581). As to the kind of experiment: Human Met kinase assay (33P radiometric, KinaseProfiler). Format: biochemical. Conditions: 10 μM ATP, read-out: c-Met IC50. The protocol: as §1
Human Met (residues R974-S1390 with A1209G and V1290L, 3.4 nM) was incubated with 8 mM MOPS pH 7.0, 0.2 mM EDTA, 250 μM KKKGQEEEYVFIE (SEO ID NO. 45), 1 mM sodium orthovanadate, 5 mM […], 10 mM magnesium acetate, and 10 μM [γ-33P-ATP]. The reaction was initiated by the addition of the Mg/ATP mix. After incubation for 40 minutes at room temperature, the reaction was stopped by the addition of phosphoric acid to a concentration of 0.5%. A reaction aliquot of […] was then spotted onto a P30 filtermat and washed four times for 4 minutes in 0.425% phosphoric acid and once in methanol prior to drying and scintillation counting. Incorporated 33P was measured using the Wallac Microbeta scintillation counter (Perkin Elmer).

Another assay has as its target AXL (Homo sapiens (Human), UniProt P30530). Nature of the assay: AXL autophosphorylation ELISA in A-172 cells. Type of assay: cell-based. Conditions: cellular, Gas6 stimulated. As for the experimental part: A-172 glioblastoma cells (ATCC #CRL-1620) were seeded at 2.5×10^5 cells/well onto 24-well plates (Greiner #662165), in DMEM (Thermo Fisher #11995-040) containing 10% FBS (Thermo Fisher #26140-079), 1% MEM NEAA (Thermo Fisher #11140-050), 1% GlutaMax (Thermo Fisher #35050-061) and 1% Penicillin Streptomycin (Thermo Fisher #15140-122). A-172 cells were incubated at 37° C., 5% CO2 for 24 h and then starved for 24 h in serum-free medium. Test compounds were serially diluted to produce an 8-point dose curve in fresh serum-free medium to a final concentration of 0.3% DMSO (vehicle) and added to the cells and incubated for 1 h. Cells were then stimulated with 1 μg/mL recombinant human Gas6 (R&D Systems #885-GSB-500) for 15 min, washed with cold PBS and immediately lysed with 150 μL of cold 1× lysis buffer [20 mM Tris, 137 mM sodium chloride, 2 mM EDTA, 10% glycerol, 1% NP-40 alternative, 1 mM activated sodium orthovanadate, 1 mM PefaBloc SC (Sigma-Aldrich #11429868001), protease/phosphatase inhibitor tablet (Thermo Fisher #A32959)]. Lysates were collected and 100 μL/well added into the human phospho-AXL DuoSet IC ELISA (R&D Systems #DYC2228-2). Assay was performed according to manufacturer's instructions and sample phospho-AXL concentrations were extrapolated using human phospho-AXL control (R&D Systems #841645) as a standard. Positive control wells (100% activity) contained Gash-stimulated, DMSO-treated cell lysates. Negative control wells (0% activity) contained Gash-stimulated, reference inhibitor-treated cell lysates. IC50 values were calculated by nonlinear regression analysis using a 4-parameter logistic curve fit in ActivityBase XE (IDBS).

The target in another assay is Met (Homo sapiens (Human), UniProt P08581). Nature of the assay: Met autophosphorylation ELISA in PC-3 cells. Format: cell-based. Conditions: cellular, HGF stimulated, read-out: c-Met IC50. As for the experimental part:
PC-3 prostate cancer cells (ATCC #CRL-1435) were seeded at 4×10^4 cells/well onto 24-well plates (Greiner #662165), in DMEM (Thermo Fisher #11995-040) containing 10% FBS (Thermo Fisher #26140-079), 1% MEM NEAA (Thermo Fisher #11140-050), 1% GlutaMax (Thermo Fisher #35050-061), and 1% Penicillin Streptomycin (Thermo Fisher #15140-122). PC-3 cells were incubated at 37° C., 5% CO2 for 24 h and then starved for 3 h in serum-free medium. Test compounds were serially diluted to produce an 8-point dose curve in fresh serum-free medium to a final concentration of 0.3% DMSO (vehicle) and added to the cells and incubated for 1 h. Cells were then stimulated with 100 ng/mL recombinant human HGF (R&D Systems #294-HG-250) for 10 min, washed with cold PBS and immediately lysed with 130 μL of cold 1× lysis buffer [20 mM Tris, 137 mM sodium chloride, 2 mM EDTA, 10% glycerol, 1% NP-40 alternative, 1 mM activated sodium orthovanadate, 1 mM PefaBloc SC (Sigma-Aldrich #11429868001), protease/phosphatase inhibitor tablet (Thermo Fisher #A32959)]. Lysates were clarified by centrifugation and 100 μL/well added into the PathScan phospho-Met (panTyr) Sandwich ELISA (Cell Signaling Technology #7333). Assay was performed according to manufacturer's instructions. Positive control wells (100% activity) contained HGF-stimulated, DMSO-treated cell lysates. Negative control wells (0% activity) contained HGF-stimulated, reference inhibitor-treated cell lysates. IC50 values were calculated by nonlinear regression analysis using a 4-parameter logistic curve fit in ActivityBase XE (IDBS).

The target of the next assay is KDR (Homo sapiens (Human), UniProt P35968). Nature of the assay: KDR autophosphorylation ELISA in HUVEC cells. Format: cell-based. Conditions: cellular, VEGF165 stimulated. The protocol:
Human umbilical vein endothelial cells or HUVEC (Lonza #C2519A) were seeded at 2×10^4 cells/well onto 96-well plates (Corning #3904), in EGM-2 growth medium (Lonza #CC-3162) containing 1% Penicillin Streptomycin (Thermo Fisher #15140-122). HUVEC cells were incubated at 37° C., 5% CO2 for 24 h and then starved for 24 h in serum-free EBM-2 basal medium (Lonza #CC-3156) containing 1% Penicillin Streptomycin. Test compounds were serially diluted to produce an 8-point dose curve in fresh serum-free medium to a final concentration of 0.3% DMSO (vehicle) and added to the cells and incubated for 1 h. Cells were then stimulated with 100 ng/mL recombinant human VEGF165 (R&D Systems #293-VE-500) for 5 min, washed with cold PBS, and immediately lysed with 130 μL of cold 1× lysis buffer [20 mM Tris, 137 mM sodium chloride, 2 mM EDTA, 10% glycerol, 1% NP-40 alternative, 1 mM activated sodium orthovanadate, 1 mM PefaBloc SC (Sigma-Aldrich #11429868001), protease/phosphatase inhibitor tablet (Thermo Fisher #A32959)]. Lysates were collected and 100 μL/well added into the human phospho-KDR DuoSet IC ELISA (R&D Systems #DYC1766-2). Assay was performed according to manufacturer's instructions and sample phospho-KDR concentrations were extrapolated using human phospho-KDR control (R&D Systems #841421) as a standard. Positive control wells (100% activity) contained VEGF165-stimulated, DMSO-treated cell lysates. Negative control wells (0% activity) contained non-stimulated cell lysates. IC50 values were calculated by nonlinear regression analysis using a 4-parameter logistic curve fit in ActivityBase XE (IDBS).

Chain of Met (P08581 25-1390): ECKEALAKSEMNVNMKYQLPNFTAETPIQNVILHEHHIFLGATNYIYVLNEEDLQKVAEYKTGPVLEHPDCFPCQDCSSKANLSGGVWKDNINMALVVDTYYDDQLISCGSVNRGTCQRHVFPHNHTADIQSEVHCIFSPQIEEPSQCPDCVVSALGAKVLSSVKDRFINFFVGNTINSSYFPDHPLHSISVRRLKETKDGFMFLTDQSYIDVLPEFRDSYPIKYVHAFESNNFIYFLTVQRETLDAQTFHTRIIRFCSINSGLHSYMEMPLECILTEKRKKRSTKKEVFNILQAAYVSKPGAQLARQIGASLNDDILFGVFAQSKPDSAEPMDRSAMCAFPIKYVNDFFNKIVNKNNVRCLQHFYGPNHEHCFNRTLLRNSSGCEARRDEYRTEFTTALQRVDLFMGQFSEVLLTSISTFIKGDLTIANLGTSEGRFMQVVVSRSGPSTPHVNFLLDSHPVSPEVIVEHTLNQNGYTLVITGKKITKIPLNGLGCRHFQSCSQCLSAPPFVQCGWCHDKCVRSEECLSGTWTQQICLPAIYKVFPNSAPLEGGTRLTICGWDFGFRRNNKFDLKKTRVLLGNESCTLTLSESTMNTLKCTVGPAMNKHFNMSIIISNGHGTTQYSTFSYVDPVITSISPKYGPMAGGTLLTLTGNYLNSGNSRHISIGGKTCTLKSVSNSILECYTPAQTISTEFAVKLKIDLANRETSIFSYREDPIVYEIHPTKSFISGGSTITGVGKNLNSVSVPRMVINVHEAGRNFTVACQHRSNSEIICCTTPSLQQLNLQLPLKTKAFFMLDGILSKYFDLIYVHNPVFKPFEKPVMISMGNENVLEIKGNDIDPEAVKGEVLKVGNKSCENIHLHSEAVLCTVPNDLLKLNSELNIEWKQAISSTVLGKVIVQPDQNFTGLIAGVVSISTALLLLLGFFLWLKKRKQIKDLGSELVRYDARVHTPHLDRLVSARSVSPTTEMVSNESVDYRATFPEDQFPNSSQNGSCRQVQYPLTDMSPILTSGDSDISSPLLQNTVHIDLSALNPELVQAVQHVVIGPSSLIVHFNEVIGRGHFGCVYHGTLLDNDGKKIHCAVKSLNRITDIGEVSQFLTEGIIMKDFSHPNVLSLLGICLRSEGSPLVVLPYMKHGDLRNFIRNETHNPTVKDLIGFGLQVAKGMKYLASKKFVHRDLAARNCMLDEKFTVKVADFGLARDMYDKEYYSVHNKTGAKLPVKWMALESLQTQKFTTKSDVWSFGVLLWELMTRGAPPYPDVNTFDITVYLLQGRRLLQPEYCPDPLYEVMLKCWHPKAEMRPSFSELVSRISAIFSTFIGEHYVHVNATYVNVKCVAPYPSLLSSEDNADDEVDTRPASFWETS
Chain of Human Mer (residues R557-E882 with H628Q and R794A) (Q12866 557-882, stated change not applied): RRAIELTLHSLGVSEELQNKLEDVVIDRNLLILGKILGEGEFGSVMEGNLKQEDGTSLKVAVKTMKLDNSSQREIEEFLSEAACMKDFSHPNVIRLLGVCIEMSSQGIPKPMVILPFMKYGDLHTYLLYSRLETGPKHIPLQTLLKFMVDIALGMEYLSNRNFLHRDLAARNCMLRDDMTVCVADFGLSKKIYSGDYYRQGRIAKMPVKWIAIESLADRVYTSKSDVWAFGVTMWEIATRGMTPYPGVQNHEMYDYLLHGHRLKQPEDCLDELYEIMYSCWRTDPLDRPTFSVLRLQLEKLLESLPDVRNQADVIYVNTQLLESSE
Chain of AXL (P30530 26-894): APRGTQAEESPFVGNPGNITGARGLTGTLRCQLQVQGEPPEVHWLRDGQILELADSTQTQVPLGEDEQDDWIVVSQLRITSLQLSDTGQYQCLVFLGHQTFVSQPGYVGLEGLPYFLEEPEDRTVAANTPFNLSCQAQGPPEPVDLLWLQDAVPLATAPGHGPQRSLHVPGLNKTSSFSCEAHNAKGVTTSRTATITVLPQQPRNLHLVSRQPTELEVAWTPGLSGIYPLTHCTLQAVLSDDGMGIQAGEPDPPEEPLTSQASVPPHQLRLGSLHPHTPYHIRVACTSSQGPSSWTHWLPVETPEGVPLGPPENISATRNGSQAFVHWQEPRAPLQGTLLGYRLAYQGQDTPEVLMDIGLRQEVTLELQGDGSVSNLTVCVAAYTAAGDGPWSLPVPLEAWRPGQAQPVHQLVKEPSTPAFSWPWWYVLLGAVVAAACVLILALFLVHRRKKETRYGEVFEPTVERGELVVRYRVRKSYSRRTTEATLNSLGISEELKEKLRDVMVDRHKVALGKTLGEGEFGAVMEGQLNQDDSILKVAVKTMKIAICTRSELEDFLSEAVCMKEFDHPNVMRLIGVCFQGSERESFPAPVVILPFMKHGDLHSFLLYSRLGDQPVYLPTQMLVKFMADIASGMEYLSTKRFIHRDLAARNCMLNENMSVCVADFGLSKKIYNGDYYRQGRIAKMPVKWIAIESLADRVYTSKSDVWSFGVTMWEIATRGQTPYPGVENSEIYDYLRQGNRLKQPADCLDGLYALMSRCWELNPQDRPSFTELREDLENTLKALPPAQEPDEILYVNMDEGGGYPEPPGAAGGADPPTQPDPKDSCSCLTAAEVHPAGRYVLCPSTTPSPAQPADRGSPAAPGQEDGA
Chain of KDR (P35968 20-1356): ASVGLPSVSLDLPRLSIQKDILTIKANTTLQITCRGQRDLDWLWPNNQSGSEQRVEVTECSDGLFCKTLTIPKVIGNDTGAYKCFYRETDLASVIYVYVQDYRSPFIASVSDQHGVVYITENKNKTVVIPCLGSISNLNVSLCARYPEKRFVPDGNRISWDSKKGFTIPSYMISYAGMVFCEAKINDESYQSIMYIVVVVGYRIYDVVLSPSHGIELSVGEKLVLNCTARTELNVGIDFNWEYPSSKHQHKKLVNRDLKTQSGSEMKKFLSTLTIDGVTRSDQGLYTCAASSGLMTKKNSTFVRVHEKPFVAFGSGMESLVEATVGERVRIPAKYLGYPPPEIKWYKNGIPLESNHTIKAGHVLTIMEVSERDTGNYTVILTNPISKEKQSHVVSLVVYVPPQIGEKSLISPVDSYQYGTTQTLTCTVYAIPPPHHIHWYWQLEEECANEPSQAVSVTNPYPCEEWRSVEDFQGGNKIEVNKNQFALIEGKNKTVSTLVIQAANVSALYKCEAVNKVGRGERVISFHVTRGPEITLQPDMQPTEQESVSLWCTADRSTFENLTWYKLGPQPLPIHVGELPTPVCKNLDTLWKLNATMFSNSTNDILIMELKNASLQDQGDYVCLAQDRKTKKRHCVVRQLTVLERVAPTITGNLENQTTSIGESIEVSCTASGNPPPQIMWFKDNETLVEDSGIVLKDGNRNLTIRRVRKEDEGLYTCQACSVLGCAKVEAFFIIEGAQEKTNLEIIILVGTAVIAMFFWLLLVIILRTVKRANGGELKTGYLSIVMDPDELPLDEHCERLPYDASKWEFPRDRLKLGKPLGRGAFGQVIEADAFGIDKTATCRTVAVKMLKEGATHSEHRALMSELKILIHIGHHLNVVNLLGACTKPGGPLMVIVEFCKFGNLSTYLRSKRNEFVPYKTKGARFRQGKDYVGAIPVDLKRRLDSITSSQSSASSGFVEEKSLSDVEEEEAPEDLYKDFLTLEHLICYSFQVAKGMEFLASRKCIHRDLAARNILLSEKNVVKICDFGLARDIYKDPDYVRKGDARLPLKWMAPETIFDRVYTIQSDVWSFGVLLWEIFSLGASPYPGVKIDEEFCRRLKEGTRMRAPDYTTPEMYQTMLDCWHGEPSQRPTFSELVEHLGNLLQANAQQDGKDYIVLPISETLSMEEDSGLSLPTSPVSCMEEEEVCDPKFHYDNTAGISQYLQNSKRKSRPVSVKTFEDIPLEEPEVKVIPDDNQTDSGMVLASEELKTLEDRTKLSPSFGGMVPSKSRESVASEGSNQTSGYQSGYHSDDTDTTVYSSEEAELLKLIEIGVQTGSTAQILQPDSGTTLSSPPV

Regarding `NC(=O)c1cc2c(Oc3ccc(NC(=O)C4(C(=O)Nc5ccc(F)cc5)CC4)cc3)ccnc2cc1Cl` [Compound 68, 1-N-[4-(6-carbamoyl-7-chloroquinolin-4-yl)oxyphenyl]-1-N′-(4-fluorophenyl)cyclopropane-1,1-dicarboxamide], the values for the IC50 in assay [1], in assay [2] and in assay [3] were 0.1 to 1 µM, 0.01 to 0.1 µM and 0.01 to 0.1 µM, respectively.
With `COc1cc2nccc(Oc3ccc(NC(=O)C4(C(=O)Nc5ccc(F)cc5)CC4)cc3)c2cc1C(=O)NC[C@@H]1CCCN1` [Compound 22, 1-N′-(4-fluorophenyl)-1-N-[4-[7-methoxy-6-[[(2S)-pyrrolidin-2-yl]methylcarbamoyl]quinolin-4-yl]oxyphenyl]cyclopropane-1,1-dicarboxamide], the IC50 was at most 0.01 µM on AXL; 0.01 to 0.1 µM at Met; 0.01 to 0.1 µM on KDR; at most 0.01 µM in assay [2]; at most 0.01 µM in assay [3].
Turning to `COc1cc2nccc(Oc3ccc(NC(=O)C4(C(=O)Nc5ccc(F)cc5)CC4)cc3)c2cc1C(=O)NC[C@H]1CCCN1` [Compound 21, 1-N′-(4-fluorophenyl)-1-N-[4-[7-methoxy-6-[[(2R)-pyrrolidin-2-yl]methylcarbamoyl]quinolin-4-yl]oxyphenyl]cyclopropane-1,1-dicarboxamide], the IC50 was at most 0.01 µM on AXL; 0.01 to 0.1 µM on Met; 0.01 to 0.1 µM at KDR; at most 0.01 µM in assay [2]; at most 0.01 µM in assay [3].
As to `COc1cc2nccc(Oc3ccc(NC(=O)C4(C(=O)Nc5ccc(F)cc5)CC4)cc3)c2cc1-c1cccn1C(=O)OC(C)(C)C` [Compound 181, tert-butyl 2-[4-[4-[[1-[(4-fluorophenyl)carbamoyl]cyclopropanecarbonyl]amino]phenoxy]-7-methoxyquinolin-6-yl]pyrrole-1-carboxylate], the IC50 in assay [1] was in the range of 0.1 to 1 µM; in assay [2], 0.01 to 0.1 µM; in assay [3] it was 0.01 to 0.1 µM.
As for `O=C(O)c1ccc2c(Oc3ccc(NC(=O)C4(C(=O)Nc5ccc(F)cc5)CC4)cc3)ccnc2c1` [Compound 163, 4-[4-[[1-[(4-fluorophenyl)carbamoyl]cyclopropanecarbonyl]amino]phenoxy]quinoline-7-carboxylic acid], the IC50 was in the range of 0.1 to 1 µM in assay [1], 0.1 to 1 µM in assay [2] and 0.01 to 0.1 µM in assay [3].
Regarding `Cc1cc2c(Oc3ccc(NC(=O)C4(C(=O)Nc5ccc(F)cc5)CC4)cc3)ccnc2cc1C(=O)O` [Compound 141, 4-[4-[[1-[(4-fluorophenyl)carbamoyl]cyclopropanecarbonyl]amino]phenoxy]-6-methylquinoline-7-carboxylic acid], the IC50 in assay [1], in assay [2] and in assay [3] was over 1 µM throughout.
`COc1cc2nccc(Oc3ccc(NC(=O)C4(C(=O)Nc5ccc(F)cc5)CC4)cc3)c2cc1C(=O)NCCN1CCOCC1` [Compound 12, 1-N′-(4-fluorophenyl)-1-N-[4-[7-methoxy-6-(2-morpholin-4-ylethylcarbamoyl)quinolin-4-yl]oxyphenyl]cyclopropane-1,1-dicarboxamide]: the IC50 against AXL was at most 0.01 µM; on Met, 0.01 to 0.1 µM; on KDR it was at most 0.01 µM; in assay [2] it was at most 0.01 µM; in assay [3], at most 0.01 µM.
In the case of `COc1cc2nccc(Oc3ccc(NC(=O)C4(C(=O)Nc5ccc(F)cc5)CC4)cc3)c2cc1C(=O)NCCN1CCCCC1` [Compound 11, 1-N′-(4-fluorophenyl)-N-[4-[7-methoxy-6-(2-piperidin-1-ylethylcarbamoyl)quinolin-4-yl]oxyphenyl]cyclopropane-1,1-dicarboxamide], the IC50 against AXL is at most 0.01 µM; on Met it was 0.01 to 0.1 µM; against KDR, at most 0.01 µM; in assay [2], at most 0.01 µM; in assay [3] it was at most 0.01 µM.
